Series [1] relates to MCF7. The experiment in a line: Anticancer activity against human MCF7 cells. Type of series: functional, cell-based.
For series [2], the target named is c-Jun N-terminal kinase, JNK (Homo sapiens, UniProt P45983+P53779+P45984). Description: Inhibition of N-terminal c-Jun phosphorylation in human HeLa cells. The format is cell-based.
Series [3] is described as follows: Cytotoxicity against CHO cells. Type of series: toxicity, cell-based, Cricetulus griseus. The note with it: Chinese hamster.
Series [4] deals with TK-10. Description: Anticancer activity against human TK-10 cells. Type of series: functional, cell-based.
The subject of series [5] is UACC-62. Description: Anticancer activity against human UACC-62 cells. Type of series: functional, cell-based.
Series [6] has as its system TK-10. Description: Anticancer activity against human TK-10 cells assessed as total growth inhibition. Type of series: functional.
In series [7] the test system is UACC-62. Description: Anticancer activity against human UACC-62 cells assessed as total growth inhibition. The format is functional.
In series [8] the test system is MCF7. Description: Anticancer activity against human MCF7 cells assessed as total growth inhibition. Type of series: functional.
Series [9] can be described thus: Blood clearance in rat at 100 mg/kg, po. The format is ADME, organism-based.
Series [10] concerns A549. Description: Antiproliferative activity against human A549 cells. The format is functional, cell-based.
The subject of series [11] is K562. Description: Antiproliferative activity against human K562 cells. The format is functional, cell-based.
The subject of series [12] is PC-3. Description: Antiproliferative activity against human PC-3 cells. Type of series: functional, cell-based.
The subject of series [13] is A-431. Description: Antiproliferative activity against human A-431 cells. Type of series: functional, cell-based.
In series [14] the test system is MDA-MB-231. Description: Antiproliferative activity against human MDA-MB-231 cells. The note with it: Homo sapiens, MDA-MB-231. Type of series: functional, cell-based.
Series [15] relates to COLO 205. The experiment in a line: Antiproliferative activity against human COLO 205 cells. Type of series: functional, cell-based.
In series [16] the test system is HEK293. Description: Antiproliferative activity against human HEK293 cells. The format is functional, cell-based.
The nature of series [17]: Cytotoxicity against human HEK293 cells. Type of series: toxicity, cell-based.
The test system of series [18] is Plasmodium falciparum. The experiment in a line: Antiplasmodial activity against Plasmodium falciparum K1. Type of series: functional, organism-based.
The subject of series [19] is Plasmodium falciparum. The experiment in a line: Antiplasmodial activity against Plasmodium falciparum HB3. The format is functional, organism-based.
Series [20] deals with Leukemia cell. Description: Antiproliferative activity against human Leukemia cell. The format is functional.
The test system of series [21] is Colon cell line. The experiment in a line: Antiproliferative activity against human Colon cell line. Type of series: functional.
Series [22] deals with Melanoma cell line. Description: Antiproliferative activity against human Melanoma cell. The format is functional.
The test system of series [23] is Prostatic carcinoma cell. Description: Antiproliferative activity against human Prostatic carcinoma cell. Type of series: functional.
Series [24] deals with MCF7. Description: Antiproliferative activity against doxorubicin resistant human MCF7 cells. The format is functional, cell-based.
Series [25] is described as follows: Antiproliferative activity against mouse P388 cells assessed as reduction in cell viability measured after 72 hrs. The note with it: 72 h. The format is functional, cell-based.
Series [26] relates to HL-60. Description: Antiproliferative activity against human HL-60 cells assessed as reduction in cell viability measured after 72 hrs. The note with it: HL-60, 72 h. The format is functional, cell-based.
The subject of series [27] is P388/ADR. The experiment in a line: Antiproliferative activity against mouse P388/ADR cells assessed as reduction in cell viability measured after 72 hrs. Type of series: functional, cell-based. The note with it: 72 h.
The subject of series [28] is P388. The experiment in a line: Potency index, ratio of test compound IC50 to dihydroartemisinin IC50 for antiproliferative activity against mouse P388 cells assessed as reduction in cell viability measured after 72 hrs. Type of series: functional.
The subject of series [29] is HL-60. Description: Potency index, ratio of test compound IC50 to dihydroartemisinin IC50 for antiproliferative activity against human HL-60 cells assessed as reduction in cell viability measured after 72 hrs. The format is functional.
Series [30] relates to P388/ADR. Description: Potency index, ratio of test compound IC50 to dihydroartemisinin IC50 for antiproliferative activity against mouse P388/ADR cells assessed as reduction in cell viability measured after 72 hrs. The format is functional.
Series [31] has as its system HCT-116. Description: Antiproliferative activity against human HCT-116 cells assessed as reduction in cell viability. The format is functional, cell-based. The note with it: hct-116.
In series [32] the test system is HeLa. Description: Antiproliferative activity against human HeLa cells assessed as reduction in cell viability. The format is functional, cell-based.
Series [33] deals with Leukemia cell. Description: Antiproliferative activity against human Leukemia cell assessed as reduction in cell viability. Type of series: functional, cell-based.
Series [34] concerns HeLa. The experiment in a line: Potency index, ratio of artesunate IC50 to test compound IC50 for antiproliferative activity against human HeLA cells assessed as inhibition of cell growth. The format is functional.
For series [35], the system named is HCT-116. The experiment in a line: Potency index, ratio of artesunate IC50 to test compound IC50 for antiproliferative activity against human HCT-116 cells assessed as inhibition of cell growth. The format is functional.
In series [36] the test system is Leukemia cell. Description: Potency index, ratio of artesunate IC50 to test compound IC50 for antiproliferative activity against human Leukemia cell assessed as inhibition of cell growth. Type of series: functional.
For series [37], the system named is TRAMP-C1A. The experiment in a line: Cytotoxicity against mouse TRAMP-C1A cells assessed as inhibition of cell growth measured for 72 hrs by MTT assay. Type of series: functional. On the technique in general: Tetrazolium assays rely on reduction of a dye to a coloured formazan, in cell work by metabolically active cells.
In series [38] the test system is TRAMP-C2H. The experiment in a line: Cytotoxicity against mouse TRAMP-C2H cells assessed as inhibition of cell growth measured for 72 hrs by MTT assay. The format is functional.
Series [39] relates to LNCaP. The experiment in a line: Cytotoxicity against human LNCaP cells assessed as inhibition of cell growth measured for 72 hrs by MTT assay. The format is functional.
Series [40] relates to HSC-2. Description: Cytotoxicity against human HSC-2 cells. The format is functional, cell-based.
In series [41] the test system is Ca9-22. Description: Cytotoxicity against human Ca9-22 cells. The format is functional, cell-based.

Where “and” joins values, the source holds several entries; their conditions need not be identical. Identical values can stand only once.

This is an account of results in ChEMBL document CHEMBL5244230, “Artemisinin-derived hybrids and their anticancer activity” (Eur J Med Chem, 2020).

A word on the IC50: it is the concentration at which inhibition is half-maximal. `Cc1cc(N/N=C/c2ccc(O[C@H]3O[C@@H]4O[C@@]5(C)CC[C@H]6[C@H](C)CC[C@@H]([C@H]3C)[C@@]46OO5)cc2)c2cc(Cl)ccc2n1`: the values for the IC50 in [1] and in series [2] were 15 µM and 7.5 µM, respectively.
The term GI50 denotes the concentration giving 50% growth inhibition. One may read the TGI as the concentration at which net growth stops. What is called CL/F is the apparent clearance, not corrected for the fraction that reaches the circulation. For the compound `C[C@H]1[C@@H](OCCN(CCCNc2ccnc3cc(Cl)ccc23)CCO[C@H]2O[C@@H]3O[C@@]4(C)CC[C@H]5[C@H](C)CC[C@@H]([C@H]2C)[C@@]35OO4)O[C@@H]2O[C@@]3(C)CC[C@H]4[C@H](C)CC[C@@H]1[C@@]24OO3`, in [3], inhibition was half-maximal at 680 nM (IC50). The GI50 in series [1], in series [4] and in series [5] was 30 nM throughout. Also, the TGI in [6], in series [7] and in series [8] was 2210 nM in each case. The same compound returned a CL/F in [9] of 3060 mL/min/kg.
On to `C[C@H]1[C@@H](OCc2cn(-c3ccc(O)cc3)nn2)O[C@@H]2O[C@@]3(C)CC[C@H]4[C@H](C)CC[C@@H]1[C@@]24OO3`, for which the IC50 in series [10], in series [11], in [12], in [13], in [14] and in [15] was 4.06 µM throughout. Moreover, the IC50 in series [16] was 4.06 µM; in [17] it was over 100 µg/mL.
As to `COP(=O)(OCC[C@H]1[C@@H](C)O[C@@H]2O[C@@]3(C)CC[C@H]4[C@H](C)CC[C@@H]1[C@@]24OO3)OCC[C@H]1O[C@@H]2O[C@@]3(C)CC[C@H]4[C@H](C)CC[C@@H]([C@H]1C)[C@@]24OO3` (stereo partly drawn), the IC50 in series [18] and in series [19] was 0.09 nM each time. Further, the GI50 in [20], in [21], in series [22] and in series [23] was under 10 nM in each case.
Regarding `C[C@H]1[C@@H](CCOP(=O)(OCC[C@H]2[C@@H](C)O[C@@H]3O[C@@]4(C)CC[C@H]5[C@H](C)CC[C@@H]2[C@@]35OO4)Oc2ccccc2)O[C@@H]2O[C@@]3(C)CC[C@H]4[C@H](C)CC[C@@H]1[C@@]24OO3` (stereo partly drawn), the IC50 in [18] and in series [19] was 0.09 nM each time. For the same compound, the GI50 in series [20] is 10 nM; in [21], under 10 nM; in series [22], under 10 nM; in series [23], under 10 nM.
On to `C[C@H]1[C@@H](Oc2ccc(Cn3ccnn3)cc2)O[C@@H]2O[C@@]3(C)CC[C@H]4[C@H](C)CC[C@@H]1[C@@]24OO3`, for which the IC50 amounted to 47 nM in series [24], 47 nM in series [25], 65 nM in [26] and 2890 nM in [27]. For the same compound, the “Ratio IC50” value in series [28], in series [29] and in series [30] was 4.6 each time.
On to `C[C@H]1[C@@H](CC(COP(=O)(Oc2ccccc2)Oc2ccccc2)C[C@H]2O[C@@H]3O[C@]4(C)CC[C@H]5[C@H](C)CC[C@@H]([C@H]2C)[C@@]35OO4)O[C@@H]2O[C@@]3(C)CC[C@H]4[C@H](C)CC[C@@H]1[C@@]24OO3` (stereo partly drawn), for which the concentration for half-maximal inhibition (IC50) is 40 nM and 190 nM in [31]; 40 nM in series [32]; 100 nM in series [33]. Further, the “Ratio IC50” value in [34], in [35] and in series [36] was 68.8 each time. The GI50 in series [37] was 31.9 nM; in [38] it was 44.8 nM; in [39], 34.4 nM.
`C[C@H]1[C@@H](CCC(=O)Nc2cnc3ccccc3c2)O[C@@H]2O[C@@]3(C)CC[C@H]4[C@H](C)CC[C@@H]1[C@@]24OO3`: the figures for the IC50 in series [40] and in series [41] were 36.9 µM and 49.7 µM, respectively.
